For this assay, the system named is mexB (PA) strain. As to the kind of experiment: Combinational effect with antibacterial agent against Pseudomonas aeruginosa (Test Examples 2 and 4): mexB (PA) strain with LVFX, TC or AZT at 1/4 MIC, EC99. In kind it is cell-based. The note with it: Table 52, Test Example 2, 16 to 20 hours culture, OD595; for EC99, mexB (PA), AZT: combined with AZT at 1/4 MIC; for EC99, mexB (PA), LVFX: combined with LVFX at 1/4 MIC. On the procedure:
The combinational effect of the test compound with the antibacterial agent against Pseudomonas aeruginosa was evaluated.
For the evaluation of the inhibitory ability against MexAB-OprM, a mutant strain of Pseudomonas aeruginosa in which MexAB-OprM was expressed as a main drug efflux pump (hereinafter, referred to as a “mexB (PA) strain”) was used. LVFX, TC, or AZT was used as the antibacterial agent used in combination.
The mexB (PA) strain is a strain produced by deleting the genes of MexCD-OprJ, MexEF-OprN, and MexXY in the drug efflux pump of Pseudomonas aeruginosa described in FEMS Microbiology Letters, 2001, Vol. 202, pp. 139 to 143. In the mexB (PA) strain, an expression level of MexB as a drug efflux pump is accelerated.
TC is a tetracycline-based antibacterial agent and is a drug that is discharged outside the bacteria by MexB. AZT is a monobactam-based antibacterial agent and is a drug that is discharged outside the bacteria by MexB.
AMK and GM are aminoglycoside-based antibacterial agents, and are drugs that are not discharged outside the bacteria by MexB but are discharged outside the bacteria by MexY For the culture of each Pseudomonas aeruginosa strain, a 96-well plate (amount of culture medium per well: 100 μL) was used, and cation-adjusted Mueller Hinton broth (CAMHB) was used. The inoculation amount of the bacteria was set to 10^4 to 5 CFU/well.
The mexB (PA) strain and the S-3769 strain were cultured for 16 to 20 hours in a culture medium to which each antibacterial agent and test compounds at various concentrations (0 to 800 μM) were added, and the proliferation of the bacterial strains was evaluated by optical turbidity at 595 nm (OD595). The concentration of the antibacterial agent in the culture medium was set to ¼ MIC.
The proliferation of bacteria in a case where the test compound and the antibacterial agent were not added was measured, and compared with the proliferation of bacteria in a case where the test compound in a case where the antibacterial agent was added at the concentration of ¼ MIC was contained, and the lowest concentration of the test compound at which the proliferation was inhibited by 99% or more was defined as the drug efflux pump inhibitory ability of the test compound as 99% inhibitory effect concentration (EC99).
The effect of suppressing the proliferation of each test compound in combination with an antibacterial agent at ¼ MIC for mexB (PA) or the S-3769 strain was evaluated as follows according to the value of EC99. • S: EC99≤12.5 μM • A: 12.5 μM<EC99≤25 μM • B: 25 μM<EC99≤100 μM • C: 100 μM<EC99
The combinational effect of the test compound with the antibacterial agent against Pseudomonas aeruginosa was evaluated in the same manner as in Test Example 2.

Structures can show the parent of a compound that is named as a salt.

Turning to `CCOc1cccc(F)c1CN1CCN(C(=O)[C@H](N)C2CCN(CCc3ccccc3)CC2)CC1` [Example 114, Hydrochloride of (R)-2-amino-1-(4-(2-ethoxy-6-fluorobenzyl)piperazin-1-yl)-2-(1-phenethylpiperidin-4-yl)ethan-1-one], the “EC99, mexB (PA), AZT” value was “C (100 μM<EC99)” and the “EC99, mexB (PA), LVFX” value is listed as “C (100 μM<EC99)”.
Turning to `COc1ccccc1CN1CCN(C(=O)[C@H](N)C2CCN(CCc3ccc(Cl)s3)CC2)CC1` [Example 134, Hydrochloride of (R)-2-amino-2-(1-(2-(5-chlorothiophen-2-yl)ethyl)piperidin-4-yl)-1-(4-(2-methoxybenzyl)piperazin-1-yl) ethan-1-one], the “EC99, mexB (PA), AZT” value is given as “C (100 μM<EC99)” and the “EC99, mexB (PA), LVFX” value was “C (100 μM<EC99)”.
With `COc1ccccc1CN1CCN(C(=O)CN2CCC(N(C)Cc3ccccc3)CC2)CC1` [Example 420, hydrochloride of 2-(4-(benzyl(methyl)amino)piperidin-1-yl)-1-(4-(2-methoxybenzyl)piperazin-1-yl)ethan-1-one], the “EC99, mexB (PA), AZT” value is recorded as “C (100 μM<EC99)” and the “EC99, mexB (PA), LVFX” value is “C (100 μM<EC99)”. In addition, the “EC99, mexB (PA), TC” value (combined with TC at 1/4 MIC) was “C (100 μM<EC99)”.
Take `COc1ccsc1CN1CCN(C(=O)CN2CCN(CCc3ccccc3)CC2)CC1` [Example 249, Hydrochloride of 1-(4-((3-methoxythiophen-2-yl)methyl)piperazin-1-yl)-2-(4-phenethylpiperazin-1-yl)ethan-1-one]: the “EC99, mexB (PA), AZT” value is recorded as “C (100 μM<EC99)” and the “EC99, mexB (PA), LVFX” value was “C (100 μM<EC99)”.
For `COc1ccccc1CN1CCN(C(=O)[C@H](N)C2CCN(CCc3cccc(Cl)c3)CC2)CC1` [Example 140, hydrochloride of (R)-2-amino-2-(1-(3-chlorophenethyl)piperidin-4-yl)-1-(4-(2-methoxybenzyl)piperazin-1-yl)ethan-1-one], the “EC99, mexB (PA), AZT” value was “C (100 μM<EC99)” and the “EC99, mexB (PA), LVFX” value is “C (100 μM<EC99)”.
In the case of `O=C(CN1CCN(CCc2ccccc2)CC1)N1CCN(Cc2ccccc2OC(F)F)CC1` [Example 200, hydrochloride of 1-(4-(2-(difluoromethoxy)benzyl)piperazin-1-yl)-2-(4-phenethylpiperazin-1-yl)ethan-1-one], the “EC99, mexB (PA), AZT” value is “B (25 μM<EC99≤100 μM)” and the “EC99, mexB (PA), LVFX” value is given as “B (25 μM<EC99≤100 μM)”.
As to `COc1ccc(F)c(F)c1CN1CCN(C(=O)CN2CCN(CCc3ccccc3)CC2)CC1` [Example 247, Hydrochloride of 1-(4-(2,3-difluoro-6-methoxybenzyl)piperazin-1-yl)-2-(4-phenethylpiperazin-1-yl)ethan-1-one], the “EC99, mexB (PA), AZT” value is on record as “A (12.5 μM<EC99≤25 μM)” and the “EC99, mexB (PA), LVFX” value was “B (25 μM<EC99≤100 μM)”.
The matching figures for `COc1ccccc1CN1CCN(C(=O)CN2CCC(C#N)(CCc3ccccc3)CC2)CC1` [Example 401, Hydrochloride of 1-(2-(4-(2-methoxybenzyl)piperazin-1-yl)-2-oxoethyl)-4-phenethylpiperidine-4-carbonitrile]: “B (25 μM<EC99≤100 μM)” and “C (100 μM<EC99)”.
For `COc1ccccc1CN1CCN(C(=O)C(C)N2CCN(CCc3ccccc3)CC2)CC1` (stereo not drawn) [Example 261, hydrochloride of 1-(4-(2-methoxybenzyl)piperazin-1-yl)-2-(4-phenethylpiperazin-1-yl)propan-1-one], in that order: “A (12.5 μM<EC99≤25 μM)” and “B (25 μM<EC99≤100 μM)”.
Consider `COc1ccccc1CN1CCN(C(=O)CN2CCN(CCC3CCCCC3)CC2)CC1` [Example 275, 2-(4-(2-Cyclohexylethyl)piperazin-1-yl)-1-(4-(2-methoxybenzyl)piperazin-1-yl) ethan-1-one and hydrochloride thereof], for which the “EC99, mexB (PA), AZT” value was “S (EC99≤12.5 μM)” and the “EC99, mexB (PA), LVFX” value was “A (12.5 μM<EC99≤25 μM)”.

For the origin of these results see patent US20250326744A1, “PIPERAZINE DERIVATIVE OR SALT THEREOF, AND PHARMACEUTICAL COMPOSITION” (priority 2022, published 2025).
